Measurements from patent US9732067B2, “Compounds and methods for activating the apoptotic arm of the unfolded protein response” (University of Kansas, priority 2012, dated 2017).
Where “and” joins values, the source holds several entries; their conditions need not be identical. Equal values may be shown once. Read-outs that look alike come from different tables or passages of the source.

How the values were obtained:
[1] = system: PERK-eIF2α-CHOP (apoptotic) arm of the Unfolded Protein Response pathway; experiment: UPR-CHOP primary assay (CHO-CHOP luciferase reporter); format: cell-based
Experimental: The purpose of this assay was to detect activators of the PERK-eIF2α-CHOP (apoptotic) arm of the Unfolded Protein Response pathway.
Cells were passaged twice a week. […] Once the cells had reached confluency, old medium was aspirated and the flasks were washed with 20 mL DPBS per T225 flask. Cells were left in DPBS for about 30 seconds. Subsequently, 6.5 mL 0.05% trypsin solution was added into the flask and the flask was rocked gently so that the solution covered the surface. The cells were allowed to detach by incubating at room temperature for about 4 minutes. The flask was washed with […] fresh growth media and the cell suspension was collected in a 50 mL sterile conical tube. The collected cells were centrifuged at 900 rpm for 5 minutes and re-suspended in 1 mL fresh growth media. An additional 19 mL of growth media was added and the tube was mixed gently. The cell suspension was filtered with a cell strainer and the cells were counted.
As above, cells were grown to confluency, washed, and detached with 5 mL trypsin solution for 4 minutes at room temperature. The flask was washed with 25 mL fresh growth media and the cell suspension was collected in a 50 mL sterile conical tube. The cells were centrifuged at 500 rpm for 10 minutes and re-suspended carefully in 1 mL fresh assay medium. An additional 19 mL of assay media was added the cells were mixed gently. The cell suspension was filtered with a cell strainer and the number of cells was counted. Cell density was adjusted to 1.0×10^5 cells/mL in medium.
On day 1, cell suspensions were prepared and 500 cells in 5 μL of assay media were plated in the wells of columns 1-48 of a 1536-well assay plate. The plates were centrifuged at 500 rpm for 1 minute and subsequently incubated at 37° C., 100% relative humidity, 5% CO2 for 16-18 hours.
[…] […] The plates were centrifuged at 1000 rpm for 1 minute and subsequently incubated at 37° C., 100% relative humidity, 5% CO2 for 6 hours.
Following the 6-hour incubation the plate was incubated for 10 minutes at room temperature and 3 μL of STEADY-GLO was added to each well. The plates were centrifuged at 2000 rpm for 2 minutes and subsequently incubated at room temperature for 10 minutes. Luminescence was measured with a luminometer.
The MLPCN library of approximately 330,000 compounds was tested in the UPR-CHOP primary screen utilizing a luciferase-based reporter expressed in a CHO cell line to identify activators of the CHOP apoptotic pathway. […]

[2] = Aqueous solubility in pION's buffer; format: physicochemical
Description: Solubility was highest at the physiological of pH 7.4.

[3] = PAMPA permeability; format: in vitro ADME
Experimental: The PAMPA (Parallel Artificial Membrane Permeability Assay) assay was used as an in vitro model of passive, transcellular permeability. An artificial membrane immobilized on a filter was placed between a donor and acceptor compartment. At the start of the test, drug was introduced in the donor compartment. Following the permeation period, the concentration of drug in the donor and acceptor compartments was measured using UV spectroscopy.

[4] = system: CHOP transcripts (apoptotic) compared to spliced XBP1 (adaptive); experiment: qRT-PCR transcription profile in OSCC cell lines UMSCC23, A253 and HN12; format: cell-based; details: four hours treatment
Description: While ML291 robustly and selectively activated the apoptotic (CHOP) arm of UPR in the engineered luciferase reporter CHO-K1 cells, while not activating reporter under the control of the adaptive arm (XBP1) promoters, direct confirmation of the selective activation of genes and pathways on the apoptotic UPR arm in a biologically relevant cell or cell line was needed. To determine whether or not ML291 could selectively activate the apoptotic (CHOP) arm of the UPR, relevant oral squamous cell carcinoma cell lines, UMSCC23, A253 and HN12, were treated with ML291 for four hours. The activation/induction of associated genes along the UPR sub-pathways were measured by quantitative real-time reverse-transcription PCR (qRT-PCR) analysis of cDNA pools generated from whole cell lysates. […] Furthermore, the simultaneous induction of the CHOP down stream target GADD34, but not the DNA excision and repair gene ERCC1 indicated ML291 was activating CHOP via the UPR and not DNA damage.

[5] = Tolerability of ML291 in mice; format: in vivo
[6] = system: UMSCC23; experiment: Proliferation, UMSCC23; format: cell-based; details: Homo sapiens, 24 hours, average of three experiments
Experimental: (§1) To determine whether ML291 could reduce the proliferation of malignant cells, a panel of OSCC (UMSCC23, A253, HN6, HN12, HN30, H460/T800) and ovarian cancer (RMG-1, TOV112D, A2780 and SKOV3) cell lines, were treated with increasing doses (0.15-20 μM) of ML291 for 24 hours (FIGS. 3A and 3B).

[7] = system: A253; experiment: Proliferation, A253; format: cell-based; details: Homo sapiens, 24 hours, average of three experiments
Experimental: as §1

[8] = system: H460/T800; experiment: Proliferation, H460/T800; format: cell-based; details: Homo sapiens, NCI-H460, 24 hours, average of three experiments
Experimental: as §1

[9] = system: RMG-1 (ovarian); experiment: Proliferation, RMG-1; format: cell-based; details: 24 hours
Experimental: as §1

[10] = system: TOV112D (ovarian); experiment: Proliferation, TOV112D; format: cell-based; details: Homo sapiens, 24 hours
Experimental: as §1

[11] = system: A2780 (ovarian); experiment: Proliferation, A2780; format: cell-based; details: Homo sapiens, 24 hours
Experimental: as §1

[12] = system: panel of OSCC and ovarian cancer cell lines; experiment: Proliferation, panel of OSCC and ovarian cancer cell lines; format: cell-based; details: 24 hours, 0.15-20 μM; read-out: IC50 values in eight of the ten cell lines
Experimental: as §1

In the case of `O=C(Nc1ccc(S(=O)(=O)N2CCC(Cl)CC2)cc1)c1ccc([N+](=O)[O-])o1` [ML291, N-(4-((4-chloropiperidin-1-yl)sulfonyl)phenyl)-5-nitrofuran-2-carboxamide], the “selectivity (XBP1 over CHOP)” value [1] is reported as greater than 108.1 fold, the EC50 ([1]; CHO-K1, text, read-out: EC50 in the CHO-K1 cell reporter assays (CHOP)) is reported as 762 nM and the EC50 ([1]; Cricetulus griseus, Table 1, mean of replicates, AID602434, read-out: UPR CHOP Assay Potency EC50) is reported as 740 nM. The EC50 ([1]; Cricetulus griseus, read-out: CHOP EC50) was 740 nM, the “Selectivity (XBP1/CHOP) x-fold” value ([1]; Table 1) was greater than 108.1 x-fold and the EC50 ([1]; Table 9, average of four runs, F12 HAMs, 10% hi-FBS, read-out: EC50 UPR CHOP Assay) was 780 nM. The EC50 ([1]; read-out: EC50 in the CHO-K1 cell reporter assays (CHOP)) was 760 nM, the “solubility over its EC50” value ([2]; EC50 762 nM) was 11-13 fold and the solubility ([2]; aqueous buffer (pION's buffer), aqueous buffer, pH range of 5.2-7.4, read-out: solubility in aqueous buffers) was 8.7 µM to 9.7 µM and 3.6 µg/mL to 4 µg/mL. The “Aqueous Solubility in pION's buffer” value ([2]; pH 5.0) was 3.6 μg/mL and 8.7 μM, the “Aqueous Solubility in pION's buffer” value ([2]; pH 6.2) was 3.8 μg/mL and 9.2 μM and the “Aqueous Solubility in pION's buffer” value ([2]; pH 7.4) was 4.0 μg/mL and 9.7 μM. For the same compound, the “PAMPA Permeability, Pe” value ([3]; Donor pH 5.0, Acceptor pH 7.4) was 291 ×10⁻⁶ cm/s, the “PAMPA Permeability, Pe” value ([3]; Donor pH 6.2, Acceptor pH 7.4) was 329 ×10⁻⁶ cm/s and the “PAMPA Permeability, Pe” value ([3]; Donor pH 7.4, Acceptor pH 7.4) was 245 ×10⁻⁶ cm/s. For the same compound, the “PAMPA permeability” value ([3]; donor pH 5.0, 6.2 and 7.4) was “good permeability”, the “selectivity of CHOP transcripts compared to spliced XBP1” value [4] was 5 fold and the “weight, physical appearance, disposition or activity versus controls” value ([5]; 10 mg/kg IP daily, preliminary) was “no differences in weight, physical appearance, disposition or activity”. For the same compound, the side effects ([5]; 10 mg/kg bi-weekly for four weeks) was “did not display any obvious side effects”, the IC50 [6] was 7310 ± 1680 nM and the IC50 [7] was 17200 ± 3640 nM. For the same compound, the IC50 [8] was 18900 ± 1830 nM, the IC50 [9] was greater than 20000 nM and the IC50 [10] was 6590 nM. The IC50 [11] was 2160 nM and the IC50 [12] was 1600 to 18900 nM.
